One compound from patent US8552035B2, “Phenanthrenone compounds, compositions and methods” (Pfizer Inc., priority 2008, dated 2013) can be followed below.

One series has as its system bone formation rate. The series is described as follows: 28-day mouse side-effect model, cortical bone histomorphometry (bone formation rate). In kind it is in vivo. The settings on record: oral gavage 28 days, tibia cortical bone formation rate. How it is done:
10-12 week old female Swiss Webster mice (Taconic, Germantown, N.Y., U.S.A.) weighing 27-29 grams are used in accordance with the guidelines of the Institutional Animal Care and Use Committee and in accordance with NIH guidelines on laboratory animal welfare. Mice are acclimated to the Pfizer animal facility for 3-7 days prior to being placed on study. Prednisolone and DAGR compounds are administered by oral gavage for a total of 28 days. Each treatment group generally contains 8-10 mice. To establish a dosing regimen for the studies, a pilot pharmacodynamic time course experiment is conducted to quantify TNFa repression after a single ED80 dose (determined from the acute LPS endotoxemia mouse model). […] DAGR compounds vary in their required frequency of doses.
During the in-life portion of each study, mice received two IP injections of the fluorochrome calcein (C-0875; Sigma-Aldrich; 20 mg/kg; 200 μL/mouse), dissolved in 2% sodium bicarbonate, on days 1 and 26 for bone histomorphometry measurements. Fluorochrome labels incorporate into the bone mineral and allow measurement of bone formation rate. During the tissue harvest, the left tibia is excised and cleaned for cortical histomorphometry measurements. After all skin and muscle are removed, tibiae are placed in 70% ethanol (4° C.) in the dark for a minimum of 24 hours.
Ground transverse sections are used for histomorphometric analysis of cortical bone^1. Bones are sectioned using a low speed saw (Isomet, Buehler, Lake Bluff, Ill.) equipped with a diamond wafer blade. The end of each tibia is removed proximal to tibia-fibula synostosis and a […] cross-section is cut. Using a roughened glass plate and a cork, sections are ground to […] until transparent and all labels distinguishable under a fluorescent microscope. Sections are dehydrated using the following solutions for a minimum of 2 minutes each: 1) 70% ethanol, 2) 95% ethanol, 3) 100% ethanol, 4) 50/50 ethanol/xylene, and 5) xylene (twice) (Sigma, St. Louis, 534056). Sections are mounted using Eukitt Quick Mounting Medium (Sigma, St. Louis, 03989) and cover-slipped. Using the Osteomeasure Bone Analysis Program (Decatur, Ga.), bone formation rate is calculated by tracing the 1st and 2nd fluorescent labels in addition to tracing the inner and outer perimeter of the bone. Bone formation rate is calculated by the following equation: (Interlabel Width/Label Interval)*(Labeled Perimeter/Bone Perimeter). At least 5 samples are measured from each treatment group in each study.
ED50 and ED80 values are obtained for the various parameters using four-parameter logistic fits of data. For each experiment/dose group, outliers are detected by calculating the number of standard deviations each mouse's value was from the mean of their group and then dividing by the standard deviation of the group. The means and standard deviations used in this calculation omitted the value being examined so that, if it were an outlier, it would have no influence. If the value being examined is more than 2.5 standard deviations from the mean, it was not used in the rest of the calculations.
Percent inhibition values are then calculated for each animal using the means of the vehicle and 10 mpk prednisone control groups. The individual mouse percent inhibition values are then fit to a four-parameter logistic model using the area under curve mean for each group. Since all four parameters are estimated and the lower plateau is not fixed at 0% and the upper plateau was not fixed at 100%, the ED50 and ED80 values are calculated by using an inverse calibration formula for a response equal to 50% or 80%. The designation “nd” means not determined.

The test system of another series is IL-1β. Kind of series: LPS-induced human whole blood, IL-1β release. In kind it is cell-based. On the procedure: Venous blood from human donors was collected as 10 ml aliquots in tubes containing sodium heparin (BD Vacutainer from Becton Dickinson and Company, Franklin Lakes, N.Y.). Blood was added to sterile polystyrene round bottom 96-well tissue culture plates (Corning Costar) at 180 Blood was placed in a humidified 37 C incubator with 5% CO2 while compounds were prepared (nearly 60 minutes).
Compounds were prepared from 10 mM stock solutions in dimethylsulfoxide (DMSO, Sigma-Aldrich). Stock compound was diluted in DMSO to give appropriate starting concentration then diluted serially 1/3 in DMSO (i.e. 15 μl compound+30 μl DMSO), followed by diluting each serial dilution 1/167 into vehicle solution (2% DMSO in phosphate buffered saline (Dulbecco's Phosphate Buffered Saline without calcium chloride without magnesium chloride, Invitrogen Corporation, Carlsbad Calif.)). Compound or vehicle was added to blood in 10 μl aliquots as triplicates, omitting the outside wells to minimize possible edge effects. The final highest concentration of each compound in the assay ranged from 3 to 0.3 μM. Final DMSO concentration in the assay was 0.1%. The plate containing the samples was gently vortexed to mix and replaced in the incubator. LPS stock (E. coli serotype 0111:B4, Sigma-Aldrich), stored in aliquots of 100 μg/ml in RPMI at −20° C., was diluted […] in RPMI to make a working stock solution. After 60 minutes of incubation, 10 μl of the prepared LPS working stock was added to the blood to a final concentration of 100 ng/ml. Wells to be used as negative control received RPMI media with no LPS. The plate was again gently vortexed and the plates incubated overnight for 22 hours. Following incubation, the blood was centrifuged at 1500×g for 5 minutes and the plasma removed to either freeze at −20° C. or assay for cytokine release.
IL-1β, IFNγ and TNFα protein levels were measured using Meso Scale assay kits (Meso Scale Discovery, Gaithersburg, Md., U.S.A.). Reagents were allowed to come to room temperature. Meso Scale plates were blocked with 150 μl of Meso Scale Block B diluent, gently shaking at room temperature for 60 minutes. Plates were washed 3× with wash buffer (PBS, Invitrogen Corporation, with 0.05% Tween-20, Sigma-Aldrich). Calibrators for standard curves were prepared in human plasma/serum assay diluent as a 1/5 serial dilution to achieve final concentrations ranging from 50000 pg/ml to 3.2 pg/ml. Samples were added at 10 to 20 μl/well and calibrators were added at 20 μl/well then incubated at room temperature with gentle shaking for 2 hours. Plates were again washed 3× with wash buffer. Detection antibody was diluted in human plasma/serum antibody diluent to 1 μg/ml and added to the plate at 20 μl/well. Plates were incubated as before for 2 hours and washed again. Read Buffer T (4×) was diluted 1:1 with mqH20 to 2× concentration and 150 μl added to each well. Plates were read on the SECTOR Imager 6000 (Meso Scale Discovery) to generate raw signal values.
Individual sample signal values were compared to positive and negative controls (vehicle treated blood with LPS and vehicle treated blood without LPS, respectively) to generate % inhibition. Triplicate values were averaged for each donor. The values for three or four donors were averaged and graphed using 4-parameter fit curves in the LabStats plug-in for the Microsoft Excel application.

Molecules are shown by their SMILES.

By ED50 is commonly meant the dose that gives a 50% effect, or the effect in half of the subjects. As usually defined, the inhibition is the change of the read-out against control, counted positive when it falls. With `Cc1ncccc1NC(=O)c1ccc2c(c1)C(=O)C[C@@H]1C[C@@](O)(c3ccccc3)[C@](C)(O)C[C@@]21Cc1ccccc1` [Example 1, (4bR,6R,7R,8aS)-4b-benzyl-6,7-dihydroxy-6-methyl-N-(2-methylpyridin-3-yl)-10-oxo-7-phenyl-4b,5,6,7,8,8a,9,10-octahydrophenanthrene-2-carboxamide], the ED50 at 28 days in the series on bone formation rate (female, Swiss Webster, read-out: BFR (ED50 dose)) came to 0.12 mg/kg. Moreover, in the series with bone formation rate, the “BFR (ED80 dose)” value stood at 0.87. Further, the inhibition at 0.000137174 µM in the series with IL-1β (Homo sapiens, 0.137174 nM, mean of donors) is -0.94%. In addition, the inhibition at 0.000411523 µM with IL-1β (Homo sapiens, 0.411523 nM, mean of donors) was -1.08%. In addition, the inhibition at 0.00123457 µM in the series with IL-1β (Homo sapiens, 1.234568 nM, mean of donors) came to 1.18%. The inhibition at 0.0037037 µM in the series on IL-1β (Homo sapiens, 3.703704 nM, mean of donors) is 5.14%. For the same compound, the inhibition at 0.0111111 µM in the series with IL-1β (Homo sapiens, 11.11111 nM, mean of donors) is 15.4%. For the same compound, the inhibition at 0.0333333 µM with IL-1β (Homo sapiens, 33.33333 nM, mean of donors) was determined as 26.4%. Moreover, the inhibition at 0.1 µM in the series with IL-1β (Homo sapiens, 100 nM, mean of donors) is 37.6%. Besides, the inhibition at 0.3 µM in the series with IL-1β (Homo sapiens, 300 nM, mean of donors) amounted to 38%. Also, the “level of inhibition of IL-1” value with IL-1β (ex vivo LPS-stimulated human whole blood, extent of inhibition, concentration not given) was found to be 38%.
